T1: wild type HAB1 (Arabidopsis thaliana, UniProt O49686+Q9CAJ0, A160V/F108A/F159V/K59R/M158I/S122G/T162D/V81I/Y58H)
T1 construct: expressed in transfected cells
T1 sequence (Q9CAJ0 4-511): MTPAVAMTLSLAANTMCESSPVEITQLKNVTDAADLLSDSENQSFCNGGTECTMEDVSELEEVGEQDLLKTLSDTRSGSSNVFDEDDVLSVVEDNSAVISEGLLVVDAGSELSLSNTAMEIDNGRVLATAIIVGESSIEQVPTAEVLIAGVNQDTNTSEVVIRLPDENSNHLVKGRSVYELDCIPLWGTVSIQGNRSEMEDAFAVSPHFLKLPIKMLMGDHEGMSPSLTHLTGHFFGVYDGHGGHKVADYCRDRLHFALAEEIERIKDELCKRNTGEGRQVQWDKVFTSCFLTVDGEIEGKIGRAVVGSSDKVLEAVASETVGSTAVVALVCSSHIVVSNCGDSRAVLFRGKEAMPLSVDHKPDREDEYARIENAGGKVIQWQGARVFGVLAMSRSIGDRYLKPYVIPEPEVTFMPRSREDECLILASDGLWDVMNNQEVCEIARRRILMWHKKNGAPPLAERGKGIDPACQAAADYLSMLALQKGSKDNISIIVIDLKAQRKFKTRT
T1 sequence (O49686 1-191 Y58H/K59R/V81I/F108A/S122G/M158I/F159V/A160V/T162D): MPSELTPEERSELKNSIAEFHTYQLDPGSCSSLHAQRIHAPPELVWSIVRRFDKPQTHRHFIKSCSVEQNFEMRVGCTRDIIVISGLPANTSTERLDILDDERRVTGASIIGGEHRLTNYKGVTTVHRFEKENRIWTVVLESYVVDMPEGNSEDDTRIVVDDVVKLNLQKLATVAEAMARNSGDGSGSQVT

B1: PYR1*^-MANDI: PYR1 mutant with 9 mutations, most sensitive to mandipropamid (protein, listed as Arabidopsis thaliana)
chain: T1 sequence (O49686 1-191 Y58H/K59R/V81I/F108A/S122G/M158I/F159V/A160V/T162D)

How the values were obtained:
[1] = system: 35S::GFP-PYR1*^-MANDI transgenic plants; test: Thermography of leaf temperature after chemical treatment; format: in vivo, Arabidopsis thaliana; details: for leaf temperature: T1 plants, 24 hours after application, FIG. 10
Excerpt: To examine the effects of over-expressing either PYR1*^-MANDI or HAB1* in Arabidopsis thaliana, we made 35S-driven GFP-PYR1*^-MANDI and GFP-HAB1* constructs by cloning the mutant genes into the binary vector pEGAD, and the resultant plasmids were transformed into Agrobacterium tumefaciens. The floral dip method was used to generate T0 transgenic seed for both constructs and the T0 seed was germinated in soil containing glufosinate to select for transgenic T1 plants. The PYR1*^-MANDI T1 plants isolated were grown for ˜5 weeks and then treated with mandipropamid, using comparisons to wild type Columbia plants and a previously constructed 35S::PYR1^MANDI transgenic strain as controls. The treated plants were thermographed 24 hours after chemical applications to examine leaf temperature, which increases after ABA responses are activated, due to reduced transpiration. To examine different mandipropamid concentrations, the plants were first treated with 1 μM mandipropamid and then 3 days later were treated again with 10 μM mandipropamid.
Several T1 transgenic seed were propagated and 3 homozygous single insertion transgenic lines identified by glufosinate segregation patterns in the T3 seedlings. GFP-PYR1*^-MANDI protein levels were established by western blotting using an anti-GFP antibody, as described above and the three lines had similar levels of protein expression.

[2] = biological target: T1, wild type HAB1; test: Yeast two hybrid, mandipropamid-promoted interaction of PYR1 variants with wild type HAB1; format: cell-based
Excerpt: To engineer orthogonal mandipropamid responsiveness, we introduced the PYR1^! mutation into the PYR1^MANDI receptor to create a septuple mutant called PYR1^!-MANDI (PYR1^Y58H;K59R;V81I;F108A;S122G;F159L;T162D). This mutant interacts with HAB1^! and HAB^!-2 in response to low μM mandipropamid in yeast two-hybrid assays, but is ˜100-fold less sensitive than the PYR1^MANDI/HAB1 interaction, which responds to concentrations in the low nM range (FIG. 3).
To improve sensitivity, we mutagenized ligand contacting and interface residues in PYR1^!-MANDI using NNK primers, pooled the mutant libraries, and used the mutagenized receptors in selection experiments using to identify enhancer mutations. The NNK mutagenesis screen targeted the following residues: P55, H60, F61, I62, K63, V83, S85, G86, L87, P88, A89, S92, E94, I110, H115, R116, L117, Y120, E141, P148, G150, N151, D154, D155, T156, M158, A160, V163, V164, L166, N167, and K170. […] Since M158 and A160 flank the F159V mutation present in PYR1^MANDI, we inferred that the closely located orthogonalizing T162D mutation in PYR1^!-MANDI may have reduced mandipropamid sensitivity by altering the local structure of the C-terminal α3-helix, which participates in ligand-induced conformational changes needed for PP2C binding (Nishimura et al., 2009). […]

Molecule	leaf temperature ([1]; 1 μM mandipropamid)	leaf temperature ([1]; 10 μM mandipropamid (3 days after 1 μM))	leaf temperature in comparison to wild type control plants ([1]; two homozygous lines, 5 μM mandipropamid, FIG. 11)	fold less sensitivity to mandipropamid than the orthogonal interaction ([2]; FIG. 6) [fold]	interaction with wild type HAB1 ([2]; yeast two hybrid)
C#CCOc1ccc(CCNC(=O)C(OCC#C)c2ccc(Cl)cc2)cc1OC (centres unmarked) [mandipropamid]	Neither of the treatments elicited substantial alterations in leaf temperature	Neither of the treatments elicited substantial alterations in leaf temperature	did not reveal differences in leaf temperature		
B1				~10	weakly interacts

Source: patent publication US10919943B2, “Mutant proteins enabling agrochemical control of plant gene expression” (The Regents of the University of California, priority 2016, dated 2021)
